Assays:
[1] = target: Bcr/Abl fusion protein (Homo sapiens, UniProt P00519, T315I); experiment: Inhibition of Bcr-Abl T315I mutant (unknown origin) by ADP-Glo assay; assay type: protein assay
[2] = target: Bcr/Abl fusion protein (Homo sapiens, UniProt P00519); experiment: Inhibition of wild type Bcr-Abl (unknown origin) by ADP-Glo assay; assay type: protein assay
[3] = system: K562; experiment: Cytotoxicity against human K562 cells expressing Bcr-Abl assessed as growth inhibition after 48 hrs by MTT assay; conditions: K562, 48 h

Row | SMILES | IC50 [1] [µM] | IC50 [2] [µM] | IC50 [3] [µM]
1 | COc1ccc(C(=O)N2CCN(C(=O)c3ccc(-c4cccc5[nH]nc(N)c45)cc3)CC2)cc1 | > 100 | > 100 | 69.7
2 | Nc1n[nH]c2cccc(-c3ccc(C(=O)NCCNC(=O)c4ccccc4Br)cc3)c12 | 1.04 | 0.031 | 13.1
3 | COc1ccccc1C(=O)NCCNC(=O)c1ccc(-c2cccc3[nH]nc(N)c23)cc1 | > 100 | 0.25 | 13.9
4 | COc1cc(OC)cc(C(=O)N2CCN(C(=O)c3ccc(-c4cccc5[nH]nc(N)c45)cc3)CC2)c1 | > 100 | – | 105
5 | Nc1n[nH]c2cccc(-c3ccc(C(=O)NCCNC(=O)c4cccc(C(F)(F)F)c4)cc3)c12 | 56.3 | 0.45 | 61.9
6 | Cc1ccccc1C(=O)NCCNC(=O)c1ccc(-c2cccc3[nH]nc(N)c23)cc1 | 28.8 | 0.018 | 8
7 | COc1ccc(C(=O)NCCNC(=O)c2ccc(-c3cccc4[nH]nc(N)c34)cc2)cc1 | > 100 | > 100 | 258
8 | Nc1n[nH]c2cccc(-c3ccc(C(=O)NCCNC(=O)c4ccc(F)c(F)c4)cc3)c12 | 75.3 | 14.3 | 28.4
9 | Nc1n[nH]c2cccc(-c3ccc(C(=O)N4CCN(C(=O)c5cccc(C(F)(F)F)c5)CC4)cc3)c12 | 94.6 | 2.76 | 18.1
10 | Cc1nc(Nc2ncc(C(=O)Nc3c(C)cccc3Cl)s2)cc(N2CCN(CCO)CC2)n1 [DASATINIB] | – | – | 0.45
11 | Nc1n[nH]c2cccc(-c3ccc(C(=O)NCCNC(=O)c4cccc(F)c4)cc3)c12 | > 100 | – | 26.9

Continued, in another order:

Row | IC50 [1] [µM] | IC50 [2] [µM] | SMILES | IC50 [3] [µM]
12 | 0.74 | 0.18 | Nc1n[nH]c2cccc(-c3ccc(C(=O)N4CCN(C(=O)c5ccccc5Br)CC4)cc3)c12 | 47.3
13 | 0.45 | 0.014 | Nc1n[nH]c2cccc(-c3ccc(C(=O)N4CCN(C(=O)c5ccc(Cl)cc5Cl)CC4)cc3)c12 | 6.5
14 | 83.5 | > 100 | Nc1n[nH]c2cccc(-c3ccc(C(=O)N4CCN(C(=O)c5ccc(F)c(F)c5)CC4)cc3)c12 | 21.5
15 | > 100 | 2.37 | Cc1cccc(C(=O)N2CCN(C(=O)c3ccc(-c4cccc5[nH]nc(N)c45)cc3)CC2)c1 | 21.8
16 | > 100 | 8.56 | Cc1ccccc1C(=O)N1CCN(C(=O)c2ccc(-c3cccc4[nH]nc(N)c34)cc2)CC1 | 17.2
17 | > 100 | 49.2 | COc1cccc(C(=O)N2CCN(C(=O)c3ccc(-c4cccc5[nH]nc(N)c45)cc3)CC2)c1 | 9.6
18 | 65.6 | 1.89 | Nc1n[nH]c2cccc(-c3ccc(C(=O)N4CCN(C(=O)c5ccc(Cl)cc5)CC4)cc3)c12 | 10.5
19 | > 100 | 22.8 | COc1ccccc1C(=O)N1CCN(C(=O)c2ccc(-c3cccc4[nH]nc(N)c34)cc2)CC1 | 32.1
20 | 2.07 | 0.086 | Nc1n[nH]c2cccc(-c3ccc(C(=O)N4CCN(C(=O)c5cccc(F)c5)CC4)cc3)c12 | 30.2
21 | 3.41 | 0.084 | Nc1n[nH]c2cccc(-c3ccc(C(=O)N4CCN(C(=O)c5ccccc5Cl)CC4)cc3)c12 | 53.7
